Source: patent US10618903B2, “Heteroaryl substituted aminopyridine compounds” (BRISTOL-MYERS SQUIBB COMPANY, priority 2015, dated 2020)

How the values were obtained:
[1] = target: IRAK4 (Homo sapiens (Human), UniProt Q9NWZ3); assay: IRAK4 Inhibition Assay; format: biochemical; settings: ATP 500 μM; IRAK4 0.6 nM
Summary of the method: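 Mobility-shift readout: phosphorylated and unphosphorylated fluorescent peptide (1.5 μM) resolved by electrophoresis after a 60 min room-temperature reaction stopped with EDTA. Reaction holds 0.6 nM IRAK4, 500 μM ATP and 1.6% DMSO in HEPES pH 7.2/MgCl2/Brij 35/DTT buffer; percent inhibition set against vehicle and no-enzyme controls.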

[2] = Caco Permeability Assay; format: in vitro ADME; settings: human, Caco-2, Caco-2 cells, 3 μM compound
[3] = test system: IL-6 levels in human whole blood stimulated with a TLR2 agonist; assay: IRAK4 Whole Blood Assay (lipoteichoic acid/TLR2-stimulated IL-6); format: cell-based; settings: Homo sapiens, lipoteichoic acid 10 μg/mL, IL-6 readout
Summary of the method: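 ACD-A-anticoagulated human whole blood was preincubated with compounds for 60 min at 37 °C under 5% CO2. It was then stimulated with 10 μg/mL lipoteichoic acid (final) in RPMI for 5 h. IL-6 in plasma supernatants was measured by flow cytometry bead assay.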

Sequence of IRAK4 (Q9NWZ3 whole entry): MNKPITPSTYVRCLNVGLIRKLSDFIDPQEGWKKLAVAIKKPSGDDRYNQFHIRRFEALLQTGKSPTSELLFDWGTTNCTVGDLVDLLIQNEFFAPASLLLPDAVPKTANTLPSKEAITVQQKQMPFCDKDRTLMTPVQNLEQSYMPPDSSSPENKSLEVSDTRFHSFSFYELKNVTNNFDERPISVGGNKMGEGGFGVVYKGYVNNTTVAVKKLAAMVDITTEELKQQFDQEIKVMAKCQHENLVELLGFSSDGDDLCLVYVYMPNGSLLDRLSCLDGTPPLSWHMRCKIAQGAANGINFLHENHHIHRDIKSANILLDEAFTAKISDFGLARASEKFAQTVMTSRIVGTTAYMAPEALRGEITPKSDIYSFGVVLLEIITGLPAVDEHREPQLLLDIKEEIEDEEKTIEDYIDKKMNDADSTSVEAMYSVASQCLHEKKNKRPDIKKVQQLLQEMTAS

SMILES | IC50 [1] | Papp at 2 h, 3 µM [2] | EC50 [3]
CC(C)(F)Cn1cc(Nc2cc(-c3cnc4cc(C#N)cnn34)ncc2C(=O)NC[C@@H](F)C(C)(C)O)cn1 [Example 279, (R)-6-(7-cyanoimidazo[1,2-b]pyridazin-3-yl)-4-((1-(2-fluoro-2-methylpropyl)-1H-pyrazol-4-yl)amino)-N-(2-fluoro-3-hydroxy-3-methylbutyl)nicotinamide] | 1 nM | < 1.5 ×10⁻⁶ cm/s | 780 nM
COCCn1cc(Nc2cc(-c3cnn4cc(Cl)cnc34)ncc2C(=O)NC[C@@H](F)C(C)(C)O)cn1 [Example 242, (R)-6-(6-chloropyrazolo[1,5-a]pyrimidin-3-yl)-N-(2-fluoro-3-hydroxy-3-methylbutyl)-4-((1-(2-methoxyethyl)-1H-pyrazol-4-yl)amino) nicotinamide] | 2 nM | 2.1 ×10⁻⁶ cm/s | 60 nM
CCNc1cc(-c2cnc3cc(C#N)cnn23)ncc1C(=O)NC[C@@H](F)C(C)(C)O [Example 188, (R)-6-(7-cyanoimidazo[1,2-b]pyridazin-3-yl)-4-(ethylamino)-N-(2-fluoro-3-hydroxy-3-methylbutyl)nicotinamide] | 5 nM | 6.7 ×10⁻⁶ cm/s | 240 nM
CC(C)(O)[C@H](F)CNC(=O)c1cnc(-c2cnc3cc(Cl)cnn23)cc1Nc1cnn(CC(F)F)c1 [Example 262, (R)-6-(7-chloroimidazo[1,2-b]pyridazin-3-yl)-4-((1-(2,2-difluoroethyl)-1H-pyrazol-4-yl)amino)-N-(2-fluoro-3-hydroxy-3-methylbutyl)nicotinamide] | 1 nM | 2.6 ×10⁻⁶ cm/s | 520 nM
CC(C)Nc1cc(-c2cnn3cc(Cl)cnc23)ncc1C(=O)NC[C@@H](F)C(C)(C)O [Example 1, (R)-6-(6-chloropyrazolo[1,5-a]pyrimidin-3-yl)-N-(2-fluoro-3-hydroxy-3-methylbutyl)-4-(isopropylamino)nicotinamide] | 3 nM | 24.8 ×10⁻⁶ cm/s | 400 nM
CC(C)Nc1cc(-c2cnn3cc(C#N)cnc23)ncc1C(=O)N[C@H]1CC[C@H](C(C)(C)O)CC1 [Example 104, 6-(6-cyanopyrazolo[1,5-a]pyrimidin-3-yl)-N-((1r,4r)-4-(2-hydroxypropan-2-yl)cyclohexyl)-4-(isopropylamino)nicotinamide] | 7 nM | 16.2 ×10⁻⁶ cm/s | 800 nM
CC(C)Nc1cc(-c2cnc3cc(C#N)cnn23)ncc1C(=O)NCCC1(O)CCCC1 [Example 217, 6-(7-cyanoimidazo[1,2-b]pyridazin-3-yl)-N-(2-(1-hydroxycyclopentyl)ethyl)-4-(isopropylamino)nicotinamide] | 2 nM | 25.6 ×10⁻⁶ cm/s | 300 nM
CC(C)(O)[C@H](F)CNC(=O)c1cnc(-c2cnn3cc(Cl)cnc23)cc1Nc1cnn(CC(F)F)c1 [Example 71, (R)-6-(6-chloropyrazolo[1,5-a]pyrimidin-3-yl)-4-((1-(2,2-difluoroethyl)-1H-pyrazol-4-yl)amino)-N-(2-fluoro-3-hydroxy-3-methylbutyl)nicotinamide] | 1 nM | 1.7 ×10⁻⁶ cm/s | 70 nM
CC(C)(O)[C@H](F)CNC(=O)c1cnc(-c2cnn3cc(Cl)cnc23)cc1Nc1cnn(C(F)F)c1 [Example 231, (R)-6-(6-chloropyrazolo[1,5-a]pyrimidin-3-yl)-4-((1-(difluoromethyl)-1H-pyrazol-4-yl)amino)-N-(2-fluoro-3-hydroxy-3-methylbutyl) nicotinamide] | 1 nM | 12.6 ×10⁻⁶ cm/s | 340 nM
Cc1cnn2c(-c3cc(NC4CC4)c(C(=O)NC[C@@H](F)C(C)(C)O)cn3)cnc2c1 [Example 184, (R)-4-(cyclopropylamino)-N-(2-fluoro-3-hydroxy-3-methylbutyl)-6-(7-methylimidazo[1,2-b]pyridazin-3-yl)nicotinamide] | 5 nM | 3.4 ×10⁻⁶ cm/s | 510 nM
CC(C)(O)[C@H](F)CNC(=O)c1cnc(-c2cnc3cc(Cl)cnn23)cc1NC1CCC1 [Example 180, (R)-6-(7-chloroimidazo[1,2-b]pyridazin-3-yl)-4-(cyclobutylamino)-N-(2-fluoro-3-hydroxy-3-methylbutyl)nicotinamide] | 2 nM | 16.5 ×10⁻⁶ cm/s | 930 nM
COc1cnc(N2CC[C@@H](Nc3cc(-c4cnn5cc(C#N)cnc45)ncc3C(=O)NC[C@@H](F)C(C)(C)O)C2)nc1 [Example 115, 6-(6-cyanopyrazolo[1,5-a]pyrimidin-3-yl)-N—((R)-2-fluoro-3-hydroxy-3-methylbutyl)-4-(((R)-1-(5-methoxypyrimidin-2-yl)pyrrolidin-3-yl)amino)nicotinamide] | 6 nM | < 1.5 ×10⁻⁶ cm/s | 2030 nM
CC(C)(O)[C@H](F)CNC(=O)c1cnc(-c2cnc3cc(Cl)cnn23)cc1Nc1cnn(C2CC(F)(F)C2)c1 [Example 277, (R)-6-(7-chloroimidazo[1,2-b]pyridazin-3-yl)-4-((1-(3,3-difluorocyclobutyl)-1H-pyrazol-4-yl)amino)-N-(2-fluoro-3-hydroxy-3-methylbutyl)nicotinamide] | 2 nM | 3.6 ×10⁻⁶ cm/s | 490 nM
CC(C)(O)[C@H](F)CNC(=O)c1cnc(-c2cnc3cc(Cl)cnn23)cc1NC1CC(F)C1 (stereo partly drawn) [Example 199, (R)-6-(7-chloroimidazo[1,2-b]pyridazin-3-yl)-N-(2-fluoro-3-hydroxy-3-methylbutyl)-4-((3-fluorocyclobutyl)amino)nicotinamide] | 4 nM | 15.8 ×10⁻⁶ cm/s | 550 nM
CC(C)(O)[C@H](F)CNC(=O)c1cnc(-c2cnc3cc(C#N)cnn23)cc1Nc1cnn(C2CC2)c1 [Example 284, (R)-6-(7-cyanoimidazo[1,2-b]pyridazin-3-yl)-4-((1-cyclopropyl-1H-pyrazol-4-yl)amino)-N-(2-fluoro-3-hydroxy-3-methylbutyl)nicotinamide] | 2 nM | < 1.5 ×10⁻⁶ cm/s | 210 nM
CC(C)Nc1cc(-c2cnc3cc(C#N)cnn23)ncc1C(=O)NC[C@H](F)C(C)(C)O [Example 194, (S)-6-(7-cyanoimidazo[1,2-b]pyridazin-3-yl)-N-(2-fluoro-3-hydroxy-3-methylbutyl)-4-(isopropylamino)nicotinamide] | 8 nM | 4.2 ×10⁻⁶ cm/s | 230 nM
CC(C)Cn1cc(Nc2cc(-c3cnn4cc(Cl)cnc34)ncc2C(=O)NC[C@@H](F)C(C)(C)O)cn1 [Example 247, (R)-6-(6-chloropyrazolo[1,5-a]pyrimidin-3-yl)-N-(2-fluoro-3-hydroxy-3-methylbutyl)-4-((1-isobutyl-1H-pyrazol-4-yl)amino)nicotinamide] | 2 nM | 8.1 ×10⁻⁶ cm/s | 360 nM
CC(C)(O)CCNC(=O)c1cnc(-c2cnn3cc(Cl)cnc23)cc1NC1COC1 [Example 47, 6-(6-chloropyrazolo[1,5-a]pyrimidin-3-yl)-N-(3-hydroxy-3-methylbutyl)-4-(oxetan-3-ylamino)nicotinamide] | 8 nM | 17.3 ×10⁻⁶ cm/s | 350 nM
C[C@@H](CO)Nc1cc(-c2cnc3cc(Cl)cnn23)ncc1C(=O)NC[C@@H](F)C(C)(C)O [Example 181, 6-(7-chloroimidazo[1,2-b]pyridazin-3-yl)-N—((R)-2-fluoro-3-hydroxy-3-methylbutyl)-4-(((S)-1-hydroxypropan-2-yl)amino)nicotinamide] | 3 nM | < 1.5 ×10⁻⁶ cm/s | 100 nM
